Reference: ChEMBL document CHEMBL3507680, “University of Dundee, Gates Library screen for HepG2 cell viability”

assay: Human HepG2 cell viability assay in 384 well format; format: toxicity, cell-based; design: dose 125 nL, time 70.5 hour; concentration not given beside the values; settings: HepG2 cells, read-out: Inhibition

| SMILES | cytotoxicity at 70.5 h |
| --- | --- |
| CN(CCCc1cnn(C)c1)C(=O)C1CCN(C(=O)C2CCC2)CC1 | -10.7% |
| CN1CCC(N(Cc2ccco2)S(=O)(=O)c2ccc(Br)cc2Cl)CC1 | 1.77% |
| CCNC(=O)N1CCc2ccc(NC(=O)NCCOCC)cc21 | 1.97% |
| CN1C(=O)CC(c2ccncc2)C12CCN(c1ncccn1)CC2 (configuration not stated) | -0.583% |
| CCOCC(O)CN1CCN(C(=O)c2ccsc2)CC1 (configuration not stated) | 17.1% |
| COc1ccc(C(=O)N2CCCCC2c2nc(C)cs2)nn1 (configuration not stated) | 23.8% |
| Fc1cnc(N2CCCn3c(nnc3Cn3cccn3)C2)nc1 | 12.7% |
| CCc1nc(CN2CCCN(CC(=O)N3CCOCC3)CC2)no1 | 41.7% |
| Cc1cc(C(C)C(=O)N2CCCN(Cc3cscn3)CC2)c(C)o1 (configuration not stated) | 18.7% |
| CC(=O)c1cc(CN2C[C@@H](C(=O)O)[C@H](c3cccnc3)C2)cs1 | -7.32% |
| Cc1csc(NC(=O)C2(C)CN(C)CCO2)n1 (configuration not stated) | 1.56% |
| O=C(c1ccoc1)N1CCc2ncc(Cn3cccn3)n2CC1 | -7.98% |
| Fc1cccc(O[C@@H]2C[C@H]3CN(Cc4ccccn4)CCN3C2)c1 | 27.5% |
| O=C(Cn1ccc2sccc2c1=O)NC1CCCCC1 | -9.58% |
| c1cncc(N2CCO[C@H]3CN(CC4CCOC4)C[C@H]32)c1 (some centres not stated) | -3.42% |
| CC[C@H](C)[C@H](N)C(=O)Nc1nc(-c2cnc(N3CCOCC3)nc2)cs1 | -1.59% |
| COc1ccccc1C(C)CC(=O)N1CC[C@H](O)C1 (some centres not stated) | -1.27% |
| COCCc1noc(-c2cn(Cc3ccccc3C)nn2)n1 | -4.41% |
| CCOCc1ncn2c1CN(C(=O)Nc1cccc(C)c1)CC2 | -6.82% |
| CN(CC(=O)NCC(CCO)c1ccccc1)C(=O)OC(C)(C)C (configuration not stated) | 27.5% |
| O=C(CCn1ccc2ccc(Cl)cc21)NCc1ccc(C(=O)O)cc1 | -0.8% |
| O=C1COC2(COCCN(Cc3ccsc3)C2)CN1c1ccoc1 (configuration not stated) | 32.5% |
| Cc1cnc(CC2COCCN(Cc3nccn3C)C2)cn1 (configuration not stated) | -1.89% |

| SMILES | cytotoxicity at 70.5 h |
| --- | --- |
| Cc1cnc(N2CC(C(=O)N3CCOCC3)C3(CCOCC3)C2)nc1 (configuration not stated) | -3.59% |
| Cc1ccc2[nH]c(=O)cc(C(=O)N[C@@H]3C[C@@H](CO)N(C)C3)c2c1 | -14.7% |
| CN1CCC(N[C@@H]2CO[C@H](CNC(=O)C3CCCC3)[C@H]2O)CC1 | -3.54% |
| Cc1cccc(S(=O)(=O)N2C[C@@H]3C[C@@H](c4nnc(C)[nH]4)O[C@@H]3C2)c1 | -1.93% |
| COC(=O)c1cccc2nc([C@H]3CCN(C4CCN(C)CC4)C3)oc12 | -2.72% |
| Cc1cc(C(=O)N2CCCC2)ccc1NCC(=O)N1CCCCC1C (configuration not stated) | 7.01% |
| CCS(=O)(=O)N1Cc2ccccc2CC1C(=O)OCc1cc(C)no1 (configuration not stated) | -7.63% |
| O=C(C1CCOc2ccccc2C1)N1Cc2cnn(CCO)c2C1 (configuration not stated) | 9.23% |
| O=C(O)c1ccc2c(c1)C1(CCCCC1)CN2C(=O)c1ccnnc1 | -4.43% |
| Cc1cc(CNC(=O)c2cc(C(C)C)n(C)n2)ccc1S(C)(=O)=O | -8.39% |
| OCC1CCN(c2ccc(NCc3ccsc3)nc2)CC1 | -5.76% |
| O=C1CCc2cc(NC(=O)C3CCCN3c3nccs3)ccc2N1 (configuration not stated) | -1.9% |
| COc1cccc(C(=O)NC(c2ccccn2)[C@H]2CC[C@H](CN)CC2)c1 (some centres not stated) | -8.19% |
| CN1CCN(C(=O)[C@H]2CC[C@@H]3[C@@H](CCN3Cc3ccsc3)O2)CC1 | -6.96% |
| CCCC(NC(=O)c1ccc(OC)cc1C)c1nnn[nH]1 (configuration not stated) | 8.62% |
| O=c1c2cccc(Cl)c2ncn1C1CCNC1 (configuration not stated) | -10.4% |
| O=c1n(CCNc2cccc3ccccc23)nc2ccccn12 | 4.9% |
| Cn1c(=O)c2cc(C(=O)NCc3ccccn3)ccc2n(C)c1=O | -4.37% |
| COCC(=O)N1CCCC1c1cccc(Cc2ccccc2F)n1 (configuration not stated) | -1.54% |
| Nc1ccc(-c2cc(O)cc(CCC3CCCCN3)c2)cn1 (configuration not stated) | -5.09% |
| COc1coc(C(=O)Nc2nc(-c3cccnc3)cs2)cc1=O | -13.5% |
| CC(C)c1nc(S(=O)(=O)N(C)c2cc(F)ccc2F)c[nH]1 | -4.89% |
| Cc1cnn(CCNCC(=O)NCc2ccccc2)c1 | -12.3% |

| SMILES | cytotoxicity at 70.5 h |
| --- | --- |
| Cc1cnc(-c2nc(O)c3c(n2)CN(C(=O)C2CCCC2)CC3)cn1 | -1.77% |
| CN1[C@H]2CC[C@@H]1CN(c1cc(Sc3cccs3)nc(N)n1)CC2 | 22.8% |
| Cc1nc(N2CCOCC2)nc(C)c1NS(=O)(=O)c1ccccc1 | -4.03% |
| O=C1N(Cc2cccnc2)CCC12CCCN(c1ncc(F)cn1)C2 (configuration not stated) | -3.96% |
| CCNc1cc2c(nn1)CCN(C(=O)C1Cc3ccccc3S1)C2 (configuration not stated) | -6.84% |
| CCc1nnc2n1CCN(C(=O)Cc1csc(-c3ccco3)n1)C2 | -15.6% |
| COc1ccc2c(c1)NC(C1CCN(C(=O)C(C)C)CC1)NS2(=O)=O (configuration not stated) | -3.05% |
| Cc1ccc(CN2CCNC(=O)C2CC(=O)N2CCSCC2)o1 (configuration not stated) | 2.5% |
| COc1cccc(OCC2CCCN(C(=O)c3cnn(C)c3)C2)c1 (configuration not stated) | 27.4% |
| Cc1ccc(NC2CCN(C(=O)COCC3CC3)CC2)nn1 | -2.64% |
| CCN(CC)C(=O)CCNC(=O)N1CCC(c2ccccc2)C1 (configuration not stated) | -6.27% |
| O=C1CCC(=O)c2oc3ccccc3c2N1 | -5.85% |
| Cn1ccnc1CN1CCC2(CC1)CCN(Cc1ccoc1)C2 | -2.31% |
| COCCN1CCN(C(C)C(=O)Nc2ccnn2C(C)C)CC1 (configuration not stated) | 1.69% |
| CS(=O)(=O)NCCNCc1ccc(Br)s1 | 3.93% |
| CSCCC1c2nc[nH]c2CCN1Cc1ccccc1C#N (configuration not stated) | -6.75% |
| Cc1cccc(OCCNC(=O)CN2CCCC2Cn2cncn2)c1 (configuration not stated) | -4.68% |
| CCOC(=O)N1CCN(c2nc(NC3CC3)c3ccccc3n2)CC1 | 3.06% |
| CN1CCC(C)(CN(C)C(=O)c2ccc(CCC(C)(C)O)cc2)C1 (configuration not stated) | -1.78% |
| COc1ccccc1OCCN1CCCC(c2cc(C(N)=O)[nH]n2)C1 (configuration not stated) | -9.71% |
| CCc1nnc(CNC(=O)CCN2CCN(c3cccc(C)c3)CC2)s1 | -4.25% |
| Cc1nc(O)c2nnn(C[C@H]3CCCN3C(=O)c3cccc(F)c3)c2n1 | -7.83% |
| Cc1cnn(C2(C(=O)O)CCN(c3ccnc4cc(Cl)ccc34)CC2)c1 | -5.05% |

| SMILES | cytotoxicity at 70.5 h |
| --- | --- |
| Cn1cc(C[C@H]2[C@@H](OCC3CC3)CCN2C(=O)c2ccc[nH]2)cn1 | 21.2% |
| Cc1noc(C)c1C1CCCN1C(=O)CN1CC2(CCNCC2)OC1=O (configuration not stated) | 19.7% |
| CCc1ccc(C(=O)Nc2ccc(CC3CC(=O)NC3=O)cc2)cc1 (configuration not stated) | 1.34% |
| CCc1c(NCc2cccnc2)cnn1CC(C)C | -5.5% |
| CCn1ncc(S(=O)(=O)N2CCCC3(CC=CNC3=O)C2)c1C (configuration not stated) | -1.6% |
| CCC(C)[C@H](N)c1nnc(SCC(=O)Nc2ccc(Br)cc2)o1 (some centres not stated) | -13.2% |
| O=S(=O)(CC1CCOCC1)NCc1ncc(-c2ccccc2)o1 | -5.19% |
| O=C(CN1CCOCS1(=O)=O)NCCc1ccc(Cl)cc1 | -9.99% |
| CCCc1nc(C)cc(N2CCC3(CCC(=O)N(CC4CC4)C3)CC2)n1 | -11.1% |
| CC(C)N(Cc1c[nH]nc1-c1ccc2c(c1)OCO2)Cc1nccn1C | -4.64% |
| Cn1ncc2c1C(COCC1CC1)CN(S(=O)(=O)C1CC1)C2 (configuration not stated) | -4.08% |
| Cc1ccnc(NC(=O)c2ccc(Br)o2)c1 | -4.47% |
| Cc1cccc2c1cnn2CCC(=O)NCc1csc(C2CC2)n1 | -8.07% |
| CCN(CC)CCNC(=O)c1ccc(-n2ccc3ccccc32)s1 | 1.6% |
| COc1ccc2[nH]nc(CN3CCC(C(C)N(C)C)CC3)c2c1 (configuration not stated) | 1.23% |
| CCN(CC)C(=O)Cn1cc(-c2nc(C(C)C)no2)nn1 | -9.42% |
| O=C1C[C@H]2[C@@H](CCN2C(=O)c2ccoc2)N1CCN1CCOCC1 | -7.58% |
| CN(Cc1cccnc1)C1CC2(CCN(C(=O)c3cnccn3)CC2)C1 | -7.42% |
| CCNC(=O)[C@@H]1C[C@@H](NC(=O)c2cccn2C)CN1CCCSC | -6.56% |
| Cc1nc(N2CCC(O)(c3ccc(F)cc3)CC2)c2c(C)nn(C)c2n1 | -3.16% |
| Cc1nnsc1C(=O)N1CCC2(CC1)c1nc[nH]c1CCN2CC(C)C | -2.79% |
| O=C1NC(C(=O)NCc2cccnc2Oc2ccc(F)cc2F)CO1 (configuration not stated) | -18.3% |
| CCOc1ccc(C2CC(=O)Nc3c2c(=O)nc2sccn32)cc1 (configuration not stated) | -31.7% |

| SMILES | cytotoxicity at 70.5 h |
| --- | --- |
| CCCc1noc(CCC(=O)N2CCCC(c3ccn[nH]3)C2)n1 (configuration not stated) | -9.26% |
| COc1ccccc1CN(C)Cc1ccnc(C2CCCO2)n1 (configuration not stated) | -2.34% |
| Cc1noc(C)c1CN1CC[C@H]2OCC[C@@]2(C(=O)N(C)C)C1 | -10.5% |
| CCC(C(=O)N(C)Cc1cc(C2CC2)[nH]n1)n1cccn1 (configuration not stated) | -5.95% |
| O=C(CN1CCCC(c2ccn[nH]2)C1)N1CCCc2ccccc21 (configuration not stated) | 15.3% |
| NC(=O)c1nc(-c2cccc(Cl)c2)oc1N | -14.1% |
| COc1cc(C)c(CNC(C)c2nc(C)cs2)cc1OC (configuration not stated) | -2.23% |
| COc1cccc2c1OCC(C(=O)N1CCN(S(=O)(=O)N(C)C)CC1)C2 (configuration not stated) | -2.76% |
| COc1ccc(CCN2CC(NCc3ncc[nH]3)CC2=O)cc1 (configuration not stated) | -7.01% |
| Cc1ccc(S(=O)(=O)NC(=O)c2cccc3c2OCCO3)c(C)c1 | -3.86% |
| CC(C)Nc1nnc(SCc2nnc(C(C)(C)C)o2)s1 | -6.2% |
| O=C(c1cocn1)N1CCC2(CC1)CC(OCC1CC1)CO2 (configuration not stated) | -8.99% |
| CC(Cc1cccc(F)c1)C(=O)NS(=O)(=O)c1ccc2c(c1)OCCO2 (configuration not stated) | 19.6% |
| CC(C)(C)c1cc(C(=O)N2CCOC(c3cnccn3)C2)[nH]n1 (configuration not stated) | 0.63% |
| O=C(c1csnn1)N1CCc2[nH]nc(COc3cccc(Cl)c3)c2C1 | -2.42% |
| COCc1nc(N(C)C)ncc1C(=O)NC(C)C | 12.7% |
| COc1ccc(Br)cc1S(=O)(=O)N(C)Cc1ccc(N(C)C)cc1 | -3.08% |
| CC(C)c1noc([C@@H]2C[C@H](NS(=O)(=O)Cc3ccccc3)CN2C)n1 | -0.576% |
| CNC(=O)N1CCC(=Cc2ccccc2)CC1 | -12% |
| Cc1cc(C)n(CC2CCCCN2C(=O)c2ccc3nncn3c2)n1 (configuration not stated) | -2.04% |
